This is an account of results in ChEMBL document CHEMBL1201862, “PubChem BioAssay data set” (2004).

Some test systems named below: LOX IMVI; A549; Malme-3M; NCI/ADR-RES; RXF 393; UO-31; HL-60; EKVX; MDA-N; RPMI-8226; PC-3; NCI-H226; 786-0; SF-268; NCI-H522; SK-OV-3; DU-145; UACC-257; MDA-MB-435; SF-539.
What all share (experiment): NCI tumour cell line growth inhibition, 48 h

Each structure is given as a SMILES string.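 1) Cells in 96-well plates. 2) Compound, 48 h, 5 concentrations. 3) Linear interpolation between surrounding doses. 4) Unreached endpoint = highest concentration. GI50: concentration for 50% inhibition of growth.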 The source made the active and inactive calls. Rule as the data show it: active = GI50 up to about 1.1 µM and inactive = higher.

For `CC(C)CC1c2[nH]c3ccccc3c2C[C@H]2C(=O)NC(CCC(=O)OC(C)(C)C)C(=O)N12` (stereo not given in full), the GI50 in the experiment with LOX IMVI is 22.9 µM (inactive); with A549, 34 µM (inactive); with Malme-3M it was 24.4 µM (inactive); with NCI/ADR-RES it was 30.3 µM (inactive); in the experiment on RXF 393, 19.1 µM (inactive); with UO-31 it was 33 µM (inactive). Also, the GI50 with HL-60 is 28.1 µM (inactive); in the experiment with EKVX it was 35.2 µM (inactive); in the experiment with MDA-N it was 30.7 µM (inactive); with RPMI-8226, 25.8 µM (inactive); with PC-3, 23.4 µM (inactive); in the experiment on NCI-H226, 49.7 µM (inactive). The GI50 with 786-0 is 43 µM (inactive); with SF-268, 27.4 µM (inactive); with NCI-H522, 25.2 µM (inactive); in the experiment with SK-OV-3, 42.5 µM (inactive); in the experiment on DU-145, 47.1 µM (inactive); with UACC-257, 25.9 µM (inactive). Further, the GI50 with MDA-MB-435 is 36 µM (inactive).

As for `COC(=O)c1cc(O)nc(O)n1`, the GI50 in the experiment on LOX IMVI, with A549, in the experiment with Malme-3M, in the experiment on NCI/ADR-RES, in the experiment on RXF 393 and in the experiment with UO-31 was > 100 µM (inactive) throughout. For the same compound, the GI50 with HL-60, in the experiment with EKVX, with MDA-N, in the experiment on PC-3, with NCI-H226 and in the experiment on 786-0 was > 100 µM (inactive) in each case. The GI50 in the experiment with SF-268, in the experiment with NCI-H522, in the experiment with DU-145, with UACC-257 and in the experiment with MDA-MB-435 was > 100 µM (inactive) throughout.

On to `NC(=O)NC(=O)c1cnccn1`, for which the GI50 in the experiment on LOX IMVI, in the experiment with A549, in the experiment on Malme-3M, in the experiment on NCI/ADR-RES, with RXF 393 and in the experiment with UO-31 was > 100 µM (inactive) in each case. For the same compound, the GI50 was > 100 µM (inactive) with EKVX; > 100 µM (inactive) with MDA-N; > 100 µM (inactive) in the experiment on RPMI-8226; > 100 µM (inactive) in the experiment with PC-3; 54.1 µM (inactive) in the experiment on NCI-H226; > 100 µM (inactive) with 786-0. Further, the GI50 with SF-268, with NCI-H522, with SK-OV-3, in the experiment on SF-539, in the experiment with DU-145 and in the experiment on UACC-257 was > 100 µM (inactive) in each case. For the same compound, the GI50 with MDA-MB-435 was > 100 µM (inactive).

Turning to `COc1cccc2c1OC(c1ccc(C#N)cc1)C([N+](=O)[O-])=C2` (stereo not given), the GI50 with LOX IMVI is 1.91 µM (inactive); in the experiment with A549, 2.56 µM (inactive); with Malme-3M, 1.61 µM (inactive); in the experiment with NCI/ADR-RES, > 100 µM (inactive); in the experiment on RXF 393 it was 1.58 µM (inactive); in the experiment on UO-31 it was 1.64 µM (inactive). In addition, the GI50 is 1.41 µM (inactive) with HL-60; 6.24 µM (inactive) in the experiment with EKVX; 1.52 µM (inactive) in the experiment on MDA-N; 1.88 µM (inactive) in the experiment on PC-3; 2.98 µM (inactive) in the experiment with NCI-H226; 0.482 µM (active) in the experiment on 786-0. In addition, the GI50 with SF-268 was 4.12 µM (inactive); in the experiment with NCI-H522, 0.214 µM (active); in the experiment on SK-OV-3 it was 3.23 µM (inactive); in the experiment on SF-539, 1.91 µM (inactive); with DU-145, 3.12 µM (inactive); in the experiment on UACC-257, 1.38 µM (inactive). The GI50 with MDA-MB-435 is 1.39 µM (inactive).

With `O=C(O)CCC(NC(=O)c1ccc(Oc2nc3ccccc3nc2-c2ccccc2)cc1)C(=O)O` (stereo not given), the GI50 in the experiment with LOX IMVI, in the experiment on A549, in the experiment with Malme-3M, in the experiment on NCI/ADR-RES, with RXF 393 and in the experiment on UO-31 was > 100 µM (inactive) each time. Besides, the GI50 in the experiment on HL-60, in the experiment with EKVX, in the experiment on MDA-N, in the experiment with PC-3, with NCI-H226 and in the experiment with 786-0 was > 100 µM (inactive) each time. Also, the GI50 in the experiment on SF-268, with NCI-H522, in the experiment with SK-OV-3, in the experiment with SF-539, in the experiment on DU-145 and with UACC-257 was > 100 µM (inactive) each time. In the experiment with MDA-MB-435, the GI50 was > 100 µM (inactive).

On to `O=C1C[C@H](CCC(=O)OCc2ccccc2)NC(=O)C[C@H](CCC(=O)OCc2ccccc2)NC(=O)C[C@H](CCC(=O)OCc2ccccc2)N1`, for which the GI50 is > 100 µM (inactive) with LOX IMVI; > 100 µM (inactive) with A549; > 100 µM (inactive) in the experiment with Malme-3M; 82.4 µM (inactive) with NCI/ADR-RES; 2.36 µM (inactive) in the experiment with RXF 393; > 100 µM (inactive) in the experiment with UO-31. The GI50 with EKVX was > 100 µM (inactive); in the experiment with MDA-N, > 100 µM (inactive); in the experiment on RPMI-8226 it was > 100 µM (inactive); in the experiment on PC-3 it was > 100 µM (inactive); in the experiment with NCI-H226 it was > 100 µM (inactive); in the experiment on 786-0, 8.15 µM (inactive). For the same compound, the GI50 in the experiment on NCI-H522 is > 100 µM (inactive); in the experiment on SK-OV-3, 5.92 µM (inactive); with SF-539, 5.64 µM (inactive); in the experiment on DU-145, > 100 µM (inactive); in the experiment with UACC-257, > 100 µM (inactive); in the experiment with MDA-MB-435 it was > 100 µM (inactive).

As for `O=C(O)CC12CC3CC(CC(O)(C3)C1)C2`, the GI50 with LOX IMVI is > 100 µM (inactive); in the experiment on A549, > 100 µM (inactive); with Malme-3M, 34.7 µM (inactive); in the experiment on NCI/ADR-RES, > 100 µM (inactive); in the experiment on RXF 393, > 100 µM (inactive); in the experiment with UO-31, > 100 µM (inactive). The GI50 in the experiment with EKVX, in the experiment with MDA-N, in the experiment with RPMI-8226, in the experiment with PC-3, with NCI-H226 and in the experiment with 786-0 was > 100 µM (inactive) in each case. In addition, the GI50 in the experiment with SF-268 was 31 µM (inactive); in the experiment on NCI-H522, 27.7 µM (inactive); in the experiment on SK-OV-3 it was > 100 µM (inactive); in the experiment on SF-539, > 100 µM (inactive); in the experiment with DU-145, > 100 µM (inactive); in the experiment with UACC-257 it was > 100 µM (inactive). Besides, the GI50 in the experiment with MDA-MB-435 is > 100 µM (inactive).

For the compound `CC(=O)OCc1cn(S(=O)(=O)c2ccc(C)cc2)cn1`, the GI50 with LOX IMVI is 47.5 µM (inactive); with A549, 84.5 µM (inactive); with Malme-3M it was > 100 µM (inactive); with NCI/ADR-RES, > 100 µM (inactive); with RXF 393, > 100 µM (inactive); in the experiment on UO-31, > 100 µM (inactive). Besides, the GI50 with HL-60 is > 100 µM (inactive); in the experiment with EKVX it was > 100 µM (inactive); in the experiment with MDA-N it was 12.5 µM (inactive); in the experiment on RPMI-8226, > 100 µM (inactive); in the experiment with PC-3, > 100 µM (inactive); in the experiment on NCI-H226, > 100 µM (inactive). In addition, the GI50 in the experiment with 786-0 was > 100 µM (inactive); with SF-268, 37.2 µM (inactive); in the experiment with NCI-H522, 64 µM (inactive); with SK-OV-3 it was > 100 µM (inactive); in the experiment on SF-539, 16.4 µM (inactive); with DU-145, > 100 µM (inactive). Moreover, the GI50 with MDA-MB-435 was 19.6 µM (inactive).

As to `CN(C)CCNc1ncnc2[nH]c(-c3ccc4ccccc4c3)nc12`, the GI50 with LOX IMVI, in the experiment with A549, in the experiment on Malme-3M, with NCI/ADR-RES, with RXF 393 and with UO-31 was > 100 µM (inactive) throughout. The GI50 in the experiment with HL-60, with EKVX, with MDA-N, in the experiment on RPMI-8226, in the experiment with PC-3 and in the experiment with NCI-H226 was > 100 µM (inactive) in each case. Also, the GI50 with 786-0, in the experiment on SF-268, in the experiment with NCI-H522, with SK-OV-3, with DU-145 and in the experiment with UACC-257 was > 100 µM (inactive) in each case. The GI50 in the experiment on MDA-MB-435 is > 100 µM (inactive).

With `CC(=O)OCC1OC(c2nnc(C)o2)=CC(OC(C)=O)C1OC(C)=O` (stereo not given), the GI50 in the experiment with LOX IMVI, in the experiment with A549, in the experiment with Malme-3M, in the experiment with NCI/ADR-RES, with RXF 393 and in the experiment on UO-31 was > 100 µM (inactive) in each case. The GI50 in the experiment with HL-60, in the experiment on EKVX, in the experiment on MDA-N, in the experiment with RPMI-8226, with PC-3 and with NCI-H226 was > 100 µM (inactive) each time. Moreover, the GI50 in the experiment with 786-0, in the experiment with SF-268, in the experiment on NCI-H522, in the experiment with SF-539, in the experiment with DU-145 and in the experiment on UACC-257 was > 100 µM (inactive) throughout. In the experiment with MDA-MB-435, the GI50 is > 100 µM (inactive).

On to `COC(=O)C(Cc1ccccc1)NC(=O)CCCNC(=O)OCc1ccccc1` (stereo not given), for which the GI50 in the experiment with LOX IMVI is > 100 µM (inactive); with A549 it was > 100 µM (inactive); with Malme-3M it was 7.33 µM (inactive); in the experiment on NCI/ADR-RES, > 100 µM (inactive); with RXF 393, < 0.01 µM (active); in the experiment on UO-31, > 100 µM (inactive). Moreover, the GI50 is 33.7 µM (inactive) in the experiment on HL-60; > 100 µM (inactive) in the experiment on EKVX; 63.7 µM (inactive) in the experiment with MDA-N; 87.3 µM (inactive) with RPMI-8226; > 100 µM (inactive) in the experiment on PC-3; > 100 µM (inactive) in the experiment with NCI-H226. Moreover, the GI50 in the experiment with 786-0 was > 100 µM (inactive); in the experiment with SF-268, > 100 µM (inactive); in the experiment on NCI-H522 it was > 100 µM (inactive); in the experiment with SK-OV-3, > 100 µM (inactive); with DU-145, > 100 µM (inactive); in the experiment on MDA-MB-435, 86.1 µM (inactive).
